Assays:
[1] = test system: Cyperus serotinus, Rottb.; assay: Preemergence weed control under flooded paddy conditions, CYPSE (Flatsedge); format: in vivo; conditions: preemergence, rated three to four weeks after treatment
Cyperus iria = assay: Preemergence weed control under flooded paddy conditions, CYPIR (Rice Flatsedge); format: in vivo; conditions: preemergence, flooded paddy, rated three to four weeks after treatment
[2] = test system: Oryza sativa, (L.) Tebonnet; assay: Rice tolerance to post-transplant applications under flooded paddy conditions (Example 187), ORYSAT (Rice, Tebonnet); conditions: rated three to four weeks after treatment
[3] = test system: Echinochloa oryzoides (Ard.) Fritsch.; assay: Preemergence weed control under flooded paddy conditions, ECHORC (Watergrass (Calif.)); format: in vivo; conditions: preemergence, flooded paddy, rated three to four weeks after treatment
Sagittaria pygmaea, L. = assay: Preemergence weed control under flooded paddy conditions, SAGPY (Arrowhead (Pygmaea)); format: in vivo; conditions: preemergence, flooded paddy, rated three to four weeks after treatment
[4] = test system: Monochoria vaginalis, Presl.; assay: Preemergence weed control under flooded paddy conditions, MOOVA (Monochoria); format: in vivo; conditions: preemergence, flooded paddy, rated three to four weeks after treatment

Compound `COCOCc1nsc2ccc(-n3c(=O)cc(C(F)(F)F)n(C)c3=O)cc12` [Example 478, 2,4(1H,3H)-Pyrimidinedione, 3-{3-[(methoxymethoxy)methyl]-1,2-benzisothiazol-5-yl}-1-methyl-6-(trifluoromethyl)-] has a CYPSE herbicidal rating ([1]; 0.0320 kg/ha) of 6.0, a CYPSE herbicidal rating ([1]; 0.0620 kg/ha) of 7.0 and a CYPSE herbicidal rating ([1]; 0.1250 kg/ha) of 9.0. For the same compound, the CYPSE herbicidal rating ([1]; 0.2500 kg/ha) was 9.0, the CYPIR herbicidal rating (Cyperus iria; 0.0320 kg/ha) was 4.0 and the CYPIR herbicidal rating (Cyperus iria; 0.0620 kg/ha) was 9.0. For the same compound, the CYPIR herbicidal rating (Cyperus iria; 0.1250 kg/ha) was 9.0, the CYPIR herbicidal rating (Cyperus iria; 0.2500 kg/ha) was 9.0 and the “ORYSAT herbicidal rating (rice tolerance)” value (from here on “ORYSAT herbicidal rating”) ([2]; 0.0320 kg/ha) was 7.0. For the same compound, the “ORYSAT herbicidal rating” value ([2]; 0.0620 kg/ha) was 9.0, the “ORYSAT herbicidal rating” value ([2]; 0.1250 kg/ha) was 9.0 and the “ORYSAT herbicidal rating” value ([2]; 0.2500 kg/ha) was 9.0. It also gave an ECHORC herbicidal rating ([3]; 0.0320 kg/ha) of 4.0, an ECHORC herbicidal rating ([3]; 0.0620 kg/ha) of 6.0 and an ECHORC herbicidal rating ([3]; 0.1250 kg/ha) of 7.0. It also gave an ECHORC herbicidal rating ([3]; 0.2500 kg/ha) of 9.0, an SAGPY herbicidal rating (Sagittaria pygmaea, L.; 0.0320 kg/ha) of 6.0 and an SAGPY herbicidal rating (Sagittaria pygmaea, L.; 0.0620 kg/ha) of 6.0. For the same compound, the SAGPY herbicidal rating (Sagittaria pygmaea, L.; 0.1250 kg/ha) was 9.0, the SAGPY herbicidal rating (Sagittaria pygmaea, L.; 0.2500 kg/ha) was 9.0 and the MOOVA herbicidal rating ([4]; 0.0320 kg/ha) was 7.0. For the same compound, the MOOVA herbicidal rating ([4]; 0.0620 kg/ha) was 9.0, the MOOVA herbicidal rating ([4]; 0.1250 kg/ha) was 9.0 and the MOOVA herbicidal rating ([4]; 0.2500 kg/ha) was 9.0.
`COC(=O)COc1cc(C)ccc1-c1nsc2cc(F)c(-n3c(=O)cc(C(F)(F)F)n(C)c3=O)cc12` [Example 479, Acetic acid, {{6-{5-[3,6-dihydro-3-methyl-2,6-dioxo-4-(trifluoromethyl)-1(2H)-pyrimidinyl]-6-fluoro-1,2-benzisothiazol-3-yl}-m-tolyl}oxy}-, methyl ester] showed a CYPSE herbicidal rating ([1]; 0.0320 kg/ha) of 0.0, a CYPSE herbicidal rating ([1]; 0.0620 kg/ha) of 7.0 and a CYPSE herbicidal rating ([1]; 0.1250 kg/ha) of 9.0. It also gave a CYPSE herbicidal rating ([1]; 0.2500 kg/ha) of 9.0, a CYPIR herbicidal rating (Cyperus iria; 0.0320 kg/ha) of 0.0 and a CYPIR herbicidal rating (Cyperus iria; 0.0620 kg/ha) of 0.0. The CYPIR herbicidal rating (Cyperus iria; 0.1250 kg/ha) was 5.0, the CYPIR herbicidal rating (Cyperus iria; 0.2500 kg/ha) was 9.0 and the “ORYSAT herbicidal rating” value ([2]; 0.0320 kg/ha) was 5.0. The “ORYSAT herbicidal rating” value ([2]; 0.0620 kg/ha) was 5.0, the “ORYSAT herbicidal rating” value ([2]; 0.1250 kg/ha) was 9.0 and the “ORYSAT herbicidal rating” value ([2]; 0.2500 kg/ha) was 9.0. For the same compound, the ECHORC herbicidal rating ([3]; 0.0320 kg/ha) was 7.0, the ECHORC herbicidal rating ([3]; 0.0620 kg/ha) was 7.0 and the ECHORC herbicidal rating ([3]; 0.1250 kg/ha) was 9.0. For the same compound, the ECHORC herbicidal rating ([3]; 0.2500 kg/ha) was 9.0, the SAGPY herbicidal rating (Sagittaria pygmaea, L.; 0.0320 kg/ha) was 3.0 and the SAGPY herbicidal rating (Sagittaria pygmaea, L.; 0.0620 kg/ha) was 5.0. It also gave an SAGPY herbicidal rating (Sagittaria pygmaea, L.; 0.1250 kg/ha) of 6.0, an SAGPY herbicidal rating (Sagittaria pygmaea, L.; 0.2500 kg/ha) of 8.0 and an MOOVA herbicidal rating ([4]; 0.0320 kg/ha) of 0.0. For the same compound, the MOOVA herbicidal rating ([4]; 0.0620 kg/ha) was 7.0, the MOOVA herbicidal rating ([4]; 0.1250 kg/ha) was 9.0 and the MOOVA herbicidal rating ([4]; 0.2500 kg/ha) was 9.0.
With `Cc1cccc(CS(=O)(=O)NC(=O)c2nsc3ccc(-n4c(=O)cc(C(F)(F)F)n(C)c4=O)cc23)c1` [Example 483, 1,2-Benzisothiazole-3-carboxamide, 5-[3,6-dihydro-3-methyl-2,6-dioxo-4-(trifluoromethyl)-1(2H)-pyrimidinyl]-N-[(m-methylbenzyl)sulfonyl]-] the CYPSE herbicidal rating ([1]; 0.0620 kg/ha) was 4.0, the CYPSE herbicidal rating ([1]; 0.2500 kg/ha) was 6.0 and the CYPIR herbicidal rating (Cyperus iria; 0.0320 kg/ha) was 0.0. For the same compound, the CYPIR herbicidal rating (Cyperus iria; 0.0620 kg/ha) was 2.0, the CYPIR herbicidal rating (Cyperus iria; 0.1250 kg/ha) was 5.0 and the CYPIR herbicidal rating (Cyperus iria; 0.2500 kg/ha) was 6.0. The “ORYSAT herbicidal rating” value ([2]; 0.0320 kg/ha) was 3.0, the “ORYSAT herbicidal rating” value ([2]; 0.0620 kg/ha) was 3.0 and the “ORYSAT herbicidal rating” value ([2]; 0.1250 kg/ha) was 5.0. For the same compound, the “ORYSAT herbicidal rating” value ([2]; 0.2500 kg/ha) was 6.0, the ECHORC herbicidal rating ([3]; 0.0320 kg/ha) was 6.0 and the ECHORC herbicidal rating ([3]; 0.0620 kg/ha) was 7.0. For the same compound, the ECHORC herbicidal rating ([3]; 0.1250 kg/ha) was 7.0, the ECHORC herbicidal rating ([3]; 0.2500 kg/ha) was 7.0 and the SAGPY herbicidal rating (Sagittaria pygmaea, L.; 0.0320 kg/ha) was 0.0. It also gave an SAGPY herbicidal rating (Sagittaria pygmaea, L.; 0.0620 kg/ha) of 0.0, an SAGPY herbicidal rating (Sagittaria pygmaea, L.; 0.1250 kg/ha) of 3.0 and an SAGPY herbicidal rating (Sagittaria pygmaea, L.; 0.2500 kg/ha) of 5.0. For the same compound, the MOOVA herbicidal rating ([4]; 0.0320 kg/ha) was 7.0, the MOOVA herbicidal rating ([4]; 0.0620 kg/ha) was 9.0 and the MOOVA herbicidal rating ([4]; 0.1250 kg/ha) was 9.0. It also gave an MOOVA herbicidal rating ([4]; 0.2500 kg/ha) of 9.0.
For `CSCOCc1nsc2ccc(-n3c(=O)cc(C(F)(F)F)n(C)c3=O)cc12` [Example 484, 2,4(1H,3H)-Pyrimidinedione, 1-methyl-3-{3-{[(methylthio)methoxy]methyl}-1,2-benzisothiazol-5-yl}-6-(trifluoromethyl)-], the CYPSE herbicidal rating ([1]; 0.0320 kg/ha) was 0.0, the CYPIR herbicidal rating (Cyperus iria; 0.0320 kg/ha) was 4.0 and the CYPIR herbicidal rating (Cyperus iria; 0.0620 kg/ha) was 4.0. The CYPIR herbicidal rating (Cyperus iria; 0.1250 kg/ha) was 6.0, the CYPIR herbicidal rating (Cyperus iria; 0.2500 kg/ha) was 9.0 and the “ORYSAT herbicidal rating” value ([2]; 0.0320 kg/ha) was 5.0. The “ORYSAT herbicidal rating” value ([2]; 0.0620 kg/ha) was 5.0, the “ORYSAT herbicidal rating” value ([2]; 0.1250 kg/ha) was 6.0 and the “ORYSAT herbicidal rating” value ([2]; 0.2500 kg/ha) was 6.0. The ECHORC herbicidal rating ([3]; 0.0320 kg/ha) was 5.0, the ECHORC herbicidal rating ([3]; 0.0620 kg/ha) was 4.0 and the ECHORC herbicidal rating ([3]; 0.1250 kg/ha) was 7.0. For the same compound, the ECHORC herbicidal rating ([3]; 0.2500 kg/ha) was 9.0, the SAGPY herbicidal rating (Sagittaria pygmaea, L.; 0.0320 kg/ha) was 5.0 and the MOOVA herbicidal rating ([4]; 0.0320 kg/ha) was 7.0. It also gave an MOOVA herbicidal rating ([4]; 0.0620 kg/ha) of 9.0, an MOOVA herbicidal rating ([4]; 0.1250 kg/ha) of 9.0 and an MOOVA herbicidal rating ([4]; 0.2500 kg/ha) of 9.0.
`Cn1c(C(F)(F)F)cc(=O)n(-c2ccc3snc(C(=O)NS(=O)(=O)CCc4ccccc4)c3c2)c1=O` [Example 485, 1,2-Benzisothiazole-3-carboxamide, 5-[3,6-dihydro-3-methyl-2,6-dioxo-4-(trifluoromethyl)-1(2H)-pyrimidinyl]-N-(phenethylsulfonyl)-] gave a CYPSE herbicidal rating ([1]; 0.0320 kg/ha) of 0.0, a CYPSE herbicidal rating ([1]; 0.0620 kg/ha) of 0.0 and a CYPIR herbicidal rating (Cyperus iria; 0.0320 kg/ha) of 2.0. For the same compound, the CYPIR herbicidal rating (Cyperus iria; 0.0620 kg/ha) was 4.0, the CYPIR herbicidal rating (Cyperus iria; 0.1250 kg/ha) was 5.0 and the CYPIR herbicidal rating (Cyperus iria; 0.2500 kg/ha) was 6.0. The “ORYSAT herbicidal rating” value ([2]; 0.0320 kg/ha) was 0.0, the “ORYSAT herbicidal rating” value ([2]; 0.0620 kg/ha) was 2.0 and the “ORYSAT herbicidal rating” value ([2]; 0.1250 kg/ha) was 4.0. For the same compound, the “ORYSAT herbicidal rating” value ([2]; 0.2500 kg/ha) was 5.0, the ECHORC herbicidal rating ([3]; 0.0320 kg/ha) was 4.0 and the ECHORC herbicidal rating ([3]; 0.0620 kg/ha) was 6.0. For the same compound, the ECHORC herbicidal rating ([3]; 0.1250 kg/ha) was 6.0, the ECHORC herbicidal rating ([3]; 0.2500 kg/ha) was 9.0 and the SAGPY herbicidal rating (Sagittaria pygmaea, L.; 0.0320 kg/ha) was 0.0. For the same compound, the SAGPY herbicidal rating (Sagittaria pygmaea, L.; 0.0620 kg/ha) was 0.0, the SAGPY herbicidal rating (Sagittaria pygmaea, L.; 0.1250 kg/ha) was 0.0 and the SAGPY herbicidal rating (Sagittaria pygmaea, L.; 0.2500 kg/ha) was 3.0. It also gave an MOOVA herbicidal rating ([4]; 0.0320 kg/ha) of 4.0, an MOOVA herbicidal rating ([4]; 0.0620 kg/ha) of 6.0 and an MOOVA herbicidal rating ([4]; 0.1250 kg/ha) of 7.0. It also gave an MOOVA herbicidal rating ([4]; 0.2500 kg/ha) of 8.0.
Work on `Cn1c(C(F)(F)F)cc(=O)n(-c2ccc3snc(C(=O)NS(=O)(=O)Cc4cccc(Cl)c4)c3c2)c1=O` [Example 486, 1,2-Benzisothiazole-3-carboxamide, N-[(m-chlorobenzyl)sulfonyl]-5-[3,6-dihydro-3-methyl-2,6-dioxo-4-(trifluoromethyl)-1(2H)-pyrimidinyl]-] yielded a CYPSE herbicidal rating ([1]; 0.0320 kg/ha) of 0.0, a CYPSE herbicidal rating ([1]; 0.0620 kg/ha) of 0.0 and a CYPSE herbicidal rating ([1]; 0.2500 kg/ha) of 3.0. For the same compound, the CYPIR herbicidal rating (Cyperus iria; 0.0320 kg/ha) was 4.0, the CYPIR herbicidal rating (Cyperus iria; 0.0620 kg/ha) was 5.0 and the CYPIR herbicidal rating (Cyperus iria; 0.1250 kg/ha) was 6.0. For the same compound, the CYPIR herbicidal rating (Cyperus iria; 0.2500 kg/ha) was 6.0, the “ORYSAT herbicidal rating” value ([2]; 0.0320 kg/ha) was 0.0 and the “ORYSAT herbicidal rating” value ([2]; 0.0620 kg/ha) was 3.0. The “ORYSAT herbicidal rating” value ([2]; 0.1250 kg/ha) was 5.0, the “ORYSAT herbicidal rating” value ([2]; 0.2500 kg/ha) was 6.0 and the ECHORC herbicidal rating ([3]; 0.0320 kg/ha) was 4.0. The ECHORC herbicidal rating ([3]; 0.0620 kg/ha) was 6.0, the ECHORC herbicidal rating ([3]; 0.1250 kg/ha) was 7.0 and the ECHORC herbicidal rating ([3]; 0.2500 kg/ha) was 9.0. For the same compound, the SAGPY herbicidal rating (Sagittaria pygmaea, L.; 0.0320 kg/ha) was 0.0, the SAGPY herbicidal rating (Sagittaria pygmaea, L.; 0.0620 kg/ha) was 0.0 and the SAGPY herbicidal rating (Sagittaria pygmaea, L.; 0.1250 kg/ha) was 3.0. The SAGPY herbicidal rating (Sagittaria pygmaea, L.; 0.2500 kg/ha) was 6.0, the MOOVA herbicidal rating ([4]; 0.0320 kg/ha) was 5.0 and the MOOVA herbicidal rating ([4]; 0.0620 kg/ha) was 6.0. It also gave an MOOVA herbicidal rating ([4]; 0.1250 kg/ha) of 7.0 and an MOOVA herbicidal rating ([4]; 0.2500 kg/ha) of 9.0.
